# Literature values as cited in US20060210638A1, “Injectable compositions of nanoparticulate immunosuppressive compounds” (Elan Pharma International Limited, priority 2005, published 2006).
# Where two headings read alike, the source gives them in different places.
# Assays:
# [1] = in vitro studies
# [2] = for mean time-to-peak concentration (Tmax): Rapamune Oral Solution
# [3] = for mean clearance: IV administration
# [4] = for reduction of mean AUC relative to fasted / reduction of mean Cmax relative to fasted: healthy volunteers (N=16)
# [5] = not given; remark: listed apart in the source
# [6] = not given; remark: listed apart in the source
# [7] = reputed
# [8] = 11 liver transplant patients, 15 minutes after high fat (400 kcal, 34% fat) breakfast
# [9] = given immediately following the meal
# [10] = high-carbohydrate meal (668 kcal, 85% carbohydrate)
# [11] = high-fat meal (848 kcal, 46% fat), 15 healthy volunteers
smiles,measurement,setting,value
C=CCC1C=C(C)CC(C)CC(OC)C2OC(O)(C(=O)C(=O)N3CCCCC3C(=O)OC(C(C)=CC3CCC(O)C(O)C3)C(C)C(O)CC1=O)C(C)CC2OC (stereo not shown) [31-demethyl metabolite],activity relative to tacrolimus (in words),[1],same activity as tacrolimus
"CO[C@H]1C[C@@H]2CC[C@@H](C)[C@@](O)(O2)C(=O)C(=O)N2CCCC[C@H]2C(=O)O[C@H]([C@H](C)C[C@@H]2CC[C@@H](O)[C@H](OC)C2)CC(=O)[C@H](C)/C=C(\C)[C@@H](O)[C@@H](OC)C(=O)[C@H](C)C[C@H](C)/C=C/C=C/C=C/1C [Sirolimus, (3S,6R,7E,9R,10R,12R,14S,15E,17E,19E,21S,23S,26R,27R ,34aS)-9,10,12,13,14,21,22,23,24,25,26,27,32,33,34,34a-hexadecahydro-9,27-dihydroxy-3-[(1 R )-2-[(1S,3R,4R)-4-hydroxy-3-methoxycyclohexyl]-1-methylethyl]-10,21-dimethoxy-6,8,12,14,20,26-hexamethyl-23,27-epoxy-3H-pyrido[2,1-c] [1,4] oxaazacyclohentriacontine-1,5,11,28,29(4H,6H,31H)-pentone]",stability when exposed to water (in words),aqueous medium,rapidly hydrolyzes
same,"solubility in benzyl alcohol, chloroform, acetone, and acetonitrile (in words)","benzyl alcohol, chloroform, acetone, acetonitrile",freely soluble
same,solubility in water,water,20 micrograms per mL
same,solubility in water (in words),water,insoluble
same,mean time-to-peak concentration (Tmax),"[2]; multiple oral doses, renal transplant recipients",approximately 2 hours
same,mean time-to-peak concentration (Tmax),"[2]; single dose, healthy subjects",approximately 1 hour
same,systemic availability,[2]; after Rapamune Oral Solution,approximately 14%
C=CC[C@@H]1/C=C(\C)C[C@H](C)C[C@H](OC)[C@H]2O[C@@](O)(C(=O)C(=O)N3CCCC[C@H]3C(=O)O[C@H](/C(C)=C/[C@@H]3CC[C@@H](O)[C@H](OC)C3)[C@H](C)[C@@H](O)CC1=O)[C@H](C)C[C@@H]2OC [Tacrolimus],solubility in ethanol (in words),ethanol,freely soluble
same,solubility in methanol and chloroform (in words),methanol and chloroform,very soluble
same,solubility in water (in words),water,practically insoluble
same,correlation coefficient of trough concentration (Cmin) with AUC,"[3]; 18 kidney transplant patients, trough 3 to 30 ng/mL at 10-12 hours post-dose",0.93
same,correlation coefficient of trough concentration (Cmin) with AUC,"[3]; 24 liver transplant patients, concentration range 10 to 60 ng/mL",0.94
same,mean clearance,[3]; adult kidney transplant patients,1.38 mL/min/kg
same,mean clearance,[3]; adult liver transplant patients,0.883 mL/min/kg
same,mean clearance,[3]; healthy volunteers,0.667 mL/min/kg
same,dose excreted unchanged in urine,[3]; in man,less than 1%
same,decreased AUC compared to fasted state,[4]; [8],27±18%
same,decreased Cmax compared to fasted state,[4]; [8],50±19%
same,reduction of mean AUC relative to fasted,[4]; 1.5 hours following the meal,39%
same,reduction of mean Cmax relative to fasted,[4]; 1.5 hours following the meal,63%
same,reduction of mean AUC relative to fasted,[4]; [9],39%
same,reduction of mean Cmax relative to fasted,[4]; [9],71%
same,decrease of mean AUC,[4]; [10],28%
same,decrease of mean Cmax,[4]; [10],65%
same,Tmax lengthened,[4]; [11],5 fold
same,decrease of mean AUC,[4]; [11],37%
same,decrease of mean Cmax,[4]; [11],77%
same,"ratio of whole blood concentration to plasma concentration, average",[5]; U.S. study,35
same,plasma protein binding,[5]; independent of concentration over 5-50 ng/mL,approximately 99%
same,clearance of tacrolimus,[6]; IV,0.483 ± 0.15 mL/min/kg
same,elimination half-life based on tacrolimus concentrations,[6]; IV,43.5 ± 11.6 h
same,fecal elimination,[6]; IV,92.4±1.0%
same,mean recovery of radiolabel,"[6]; IV, 6 healthy volunteers",77.8±12.7%
same,clearance of tacrolimus,[6]; oral,2.87 ± 1.47 mL/min/kg
same,elimination half-life based on tacrolimus concentrations,[6]; oral,48.4 ± 12.3 h
same,fecal elimination,[6]; oral,92.6±30.7%
same,mean recovery of the radiolabel,[6]; oral,94.9±30.7%
same,urinary elimination,[6]; oral,2.3±1.1%
same,effectiveness relative to cyclosporine,[7],100 times
